Test results as given in PMC2365101, “Anti-Inflammatory Activity of (Polyphenolic)-Sulfonates and Their Sodium Salts in Rodents” (Metal-Based Drugs, 1998).

Tests used:
[1] = system: IL-1 release from P388D1 macrophages; test: IL-1 release from P388D1 macrophages (L929 bioassay); assay type: cell-based, mouse; details: for IL-1 release, Percent of Control: over 18 hours, N=6; for reduction of IL-1 release: 25 and 50 μM, 18 hr
From the text: (§1) Few reports in the literature indicate interaction at these receptor sites other than by peptides or antibodies. […] Blocking these receptors is desirable because the entire inflammation cascade of events is triggered by the early release of TNFa and IL-1. […] Radioisotopes were obtained from New England Nuclear [Dupont, Boston, MA] and substrates and co- factors were obtained from Sigma Chemical Co. [St. Louis, MO]. […] Cell lines were obtained from American Type Culture Collection [Rockville, MD]. In Vivo Tests Anti-inflammatory screen in mice: Male CF male mice weighing 28-32g obtained from Jackson Lab. [Bar Harbor, […]] were used to screen agents at 8 or 16 mg/kg intraperitoneal [I.P.] x 2 administered 3 hr and 30 min prior to administering the irritant, according to Winter's protocol. Evaluation of the induced edema was made by injecting 2% carrageenan in 0.9% saline into the plantar region of the foot. The opposite foot injected with 0.9% isotonic saline was used as a base line. […] Salmonella abortus equi [Lot # 69F4003] […] Drugs from 2 to 16 mg/kg, I.P. were administered 2 hr prior and 2 hr post-injection of the LPS and then subsequently for every 24 hr for the length ofthe animals' lives. Deaths were recorded every 12 hr and continued for 96 hr. […] In vitro TNFa andIL-1 Measurements and Cellular Regulation IC-21 mouse macrophages were maintained in RPMI-1640 + 10% FCS + P/S. After the cells had grown to confluency, E. coli LPS at 10 Ixg/ml was added to the medium. Agents were incubated at 12.5 to 100 µM final concentration for 18 hr. The medium (100 btl) was collected for TNFCt determinations. Interleukin-1 [IL-1] release was determined using P388D1 cells which were maintained in RPMI-1640 + 10% FCS + P/S. The L929 bioassay was used to quantitate the TNF and the IL-1 levels. The L929 mouse fibroblasts were grown in DMEM + 10% FCS + P/S to confluency in 96 well plates and incubated with 100 tl ofmedium from […] or P388D cells after 18 hr. The cells were stained with 0.2% crystal violet in 20% MeOH and read at 580 nm using a Molecular Devices scanner (SOFT-max program). High Affinity Binding to Receptors on L929-106 Cells Two laCi of 125I-TNFct (human recombinant, 30 mCi/tg New England Nuclear) or 125I-IL-1 (70-120[.t Ci/lxg,New England Nuclear) was added to confluency L929 cells for 90 min or 5 hr, respectively with 25, 50 and 100 tM of the test compounds 12]. The cells were washed repeatedly with isotonic saline, pH.7.2 and aliquots counted. Prostaglandin cylcooxygenase activity Mouse J774AI macrophages maintained in Dulbecco's modified Eagle's medium + 15% FCS + P/S. Cells (5 x 106) were incubated with agents (5 to 100 ].tM final concentration) and 3H-arachidonic acid (100 Ci/mol) for 60 min at 37C in a CO2 incubator. The reaction was terminated with 2N HCI, the mixture extracted 2 X with ether, and the organic layer evaporated.

[2] = target: human leukocyte elastase (RPMI 1788); test: Elastase activity in human leukocytes RPMI 1788; assay type: biochemical
[3] = system: TNFα release from IC-21 macrophages; test: TNFα release from IC-21 macrophages induced by LPS (L929 bioassay); assay type: cell-based, mouse; details: for TNFα release, Percent of LPS Control: 18 hours exposure to LPS, N=6
From the text: as §1

[4] = target: IC-21 macrophage elastase; test: Elastase activity in IC-21 macrophages; assay type: biochemical, mouse; details: 120 min
[5] = target: J774-A1 prostaglandin cyclooxygenase; test: Prostaglandin cyclooxygenase activity in J774-A1 macrophages; assay type: cell-based, mouse; details: 60 min; read-out: IC50 Cyclo-oxygenase J774-A1
From the text: as §1

COc1c2cc(S(=O)(=O)[O-])cc1Cc1cc(S(=O)(=O)[O-])cc(c1OC)Cc1cc(S(=O)(=O)[O-])cc(c1OC)Cc1cc(S(=O)(=O)[O-])cc(c1OC)Cc1cc(S(=O)(=O)[O-])cc(c1OC)Cc1cc(S(=O)(=O)[O-])cc(c1OC)C2.[Na+].[Na+].[Na+].[Na+].[Na+].[Na+] [Compound 6]
IL-1 release, Percent of Control ([1]; 12.5 μM): 6 + 2% of Control
IL-1 release, Percent of Control ([1]; 25 μM): 0% of Control
IL-1 release, Percent of Control ([1]; 50 μM): 0% of Control
reduction of IL-1 release [1]: > 95%
IC50 ([2]; 60 min): 275 µM
IC50 ([2]; 120 min): 162 µM
TNFα release, Percent of LPS Control ([3]; 5 μM): 118 + 7% of LPS Control
TNFα release, Percent of LPS Control ([3]; 12.5 μM): 102 + 5% of LPS Control
TNFα release, Percent of LPS Control ([3]; 25 μM): 86 + 6% of LPS Control
TNFα release, Percent of LPS Control ([3]; 50 μM): 62 + 4% of LPS Control
reduction of TNFα release ([3]; 50 μM, 18 hr): 38%

CC(=O)Oc1c2cc(S(=O)(=O)[O-])cc1Cc1cc(S(=O)(=O)[O-])cc(c1OC(C)=O)Cc1cc(S(=O)(=O)[O-])cc(c1OC(C)=O)Cc1cc(S(=O)(=O)[O-])cc(c1OC(C)=O)Cc1cc(S(=O)(=O)[O-])cc(c1OC(C)=O)Cc1cc(S(=O)(=O)[O-])cc(c1OC(C)=O)Cc1cc(S(=O)(=O)[O-])cc(c1OC(C)=O)Cc1cc(S(=O)(=O)[O-])cc(c1OC(C)=O)C2.[Na+].[Na+].[Na+].[Na+].[Na+].[Na+].[Na+].[Na+] [Compound 8]
IC50 [4]: 111 µM
IL-1 release, Percent of Control ([1]; 12.5 μM): 66 + 4% of Control
IL-1 release, Percent of Control ([1]; 25 μM): 0% of Control
IL-1 release, Percent of Control ([1]; 50 μM): 0% of Control
reduction of IL-1 release [1]: > 95%
TNFα release, Percent of LPS Control ([3]; 5 μM): 73 + 4% of LPS Control
TNFα release, Percent of LPS Control ([3]; 12.5 μM): 66 + 4% of LPS Control
TNFα release, Percent of LPS Control ([3]; 25 μM): 44 + 3% of LPS Control
TNFα release, Percent of LPS Control ([3]; 50 μM): 53 +4% of LPS Control
IC50 [5]: 33.3 µM
